How the values were obtained:
[1] = system: Leptosphaeria nodorum (LEPTNO); experiment: In vitro fungitoxicity (growth inhibition) assay in copper-minus / copper-plus liquid medium; assay type: cell-based; details: for inhibition of growth at 0.05 µg/mL: Parastagonospora nodorum, copper-minus medium, light scattering, read-out: LEPTNO % Inhn. Minus Copper Observed; for inhibition of growth at 0.05 µg/mL / LEPTNO % Inhn. Plus Copper Observed: test compound at 0.05 μg/mL, 72 h at 25° C.; for LEPTNO % Inhn. Plus Copper Observed: copper-plus medium (CuCl2.2H2O)
Procedure: In vitro fungitoxicity assays against Leptosphaeria nodorum (LEPTNO) were conducted using the liquid growth medium described by Coursen and Sisler (American Journal of Botany 1960, 47, 541-549) except that copper micronutrient, normally included as CuSO4, was omitted. The medium, termed “copper-minus,” was prepared by dissolving 10 g glucose, 1.5 g K2HPO4, 2 g KH2PO4 and 1 g (NH4)2SO4 in 1 liter of deionized water and treating the solution with 0.5 g Chelex 100 resin (Bio-Rad Analytical grade, 50-100 mesh, sodium form, cat#142-2822) by stirring at room temperature for 1 h. MgSO4.7H2O (0.5 g) was added, and stirring was continued for a further hour. Trace elements (minus CuSO4), and vitamins described by Coursen and Sisler were added from concentrated stock solutions and the entire medium was sterilized by filtration. Medium containing copper was prepared by adding CuCl2.2H2O to the copper-minus medium at 20 μM. Test compounds were dissolved in dimethylsulfoxide (DMSO) at 10 μg/mL and 1 μL aliquots were added to two wells of flat-bottomed 96-well microtiter plates. Copper-minus medium (100 μL) was added to one of the wells and copper-plus medium to the second well. Control wells, included for each medium, received 1 μL DMSO and 100 μL of medium.
LEPTNO was grown on potato dextrose agar in 9 cm diameter petri dishes for 7 days. Sterile deionized water (20 mL) was added to a culture plate and spores suspended by scraping the surface gently with a sterile plastic loop. The resulting suspension was filtered through a double layer of sterile cheesecloth. Filtered spore suspension (5 mL) was centrifuged in a bench centrifuge at 2000 rpm for 2 min. The resulting spore pellet was resuspended in 10 mL sterile deionized water (which had been treated with Chelex 100 resin using 0.5 g resin per liter of water by stirring at room temperature for 1 h), and recentrifuged. The spores were resuspended in copper-minus medium, and the suspension adjusted to 2×10^5 spores per mL. Microtiter plates were inoculated with 100 μL of this spore suspension and the plates incubated at 25° C. for 72 h before assessing fungal growth by measuring light scattering in a NepheloStar plate reader. Growth inhibition was determined by comparing growth in the presence of test compound with growth in control wells lacking test compound.
Results for growth inhibition by test compounds at 0.05 μg/mL in copper-plus medium (% Inhn. Plus Copper Observed) were compared with predicted values (% Inhn. Plus Copper Predicted) that were calculated using the formula set forth by S. R. Colby in Weeds 1967, 15, 20-22 based on results obtained for the same compounds in copper-minus medium (% Inhn. Minus Copper Observed) and the inhibition attributed to copper chloride alone, as determined by comparing growth in copper-minus and copper-plus media without any test compound across experiments. Results illustrate that hydrazones and copper produce a synergistic fungitoxic effect towards LEPTNO.

Phytophthora infestans = assay type: in vivo; details: hydrazone 50 ppm plus 50 μM CuCl2.2H2O, applied 24 h before inoculation, assessed 7 days after inoculation, tomato plants

With `Cc1ccc(C(=O)N/N=C2\CCc3c(Cl)cc(Cl)c(O)c32)cc1` [Compound 1, 4-Methylbenzoic acid [4,6-dichloro-7-hydroxy-indanylidine]hydrazide] the inhibition of growth at 0.05 µg/mL [1] was 15.2%, the “LEPTNO % Inhn. Plus Copper Observed” value [1] was 96.8% and the melting point was 218 to 222 °C. The TLB % control (Phytophthora infestans) was 78%.
In the case of `O=C(N/N=C1\CCc2c(Cl)cc(Cl)c(O)c21)c1ccc(Cl)cc1` [Compound 2], the inhibition of growth at 0.05 µg/mL [1] was 16.7%, the “LEPTNO % Inhn. Plus Copper Observed” value [1] was 96.8% and the melting point was 252 to 255 °C. It also gave a TLB % control (Phytophthora infestans) of 78%.
With `O=C(N/N=C1\CCc2c(Cl)cc(Cl)c(O)c21)c1ccccc1O` [Compound 3] the inhibition of growth at 0.05 µg/mL [1] was 24.9%, the “LEPTNO % Inhn. Plus Copper Observed” value [1] was 97.1% and the melting point was 285 to 290 °C. The TLB % control (Phytophthora infestans) was 55%.
In the case of `COc1ccc(C(=O)N/N=C2\CCc3c(Cl)cc(Cl)c(O)c32)cc1` [Compound 4], the inhibition of growth at 0.05 µg/mL [1] was 3.5%, the “LEPTNO % Inhn. Plus Copper Observed” value [1] was 96.6% and the melting point was 230 to 233 °C. The TLB % control (Phytophthora infestans) was 64%.
With `O=C(N/N=C1\CCc2c(Cl)cc(Cl)c(O)c21)c1ccc(C(F)(F)F)cc1` [Compound 5] the inhibition of growth at 0.05 µg/mL [1] was 20.7%, the “LEPTNO % Inhn. Plus Copper Observed” value [1] was 97.2% and the melting point was 245 to 248 °C. For the same molecule, the TLB % control (Phytophthora infestans) was 53%.
With `O=C(N/N=C1\CCc2c(Cl)cc(Cl)c(O)c21)c1ccccc1` [Compound 6] the inhibition of growth at 0.05 µg/mL [1] was 23.1%, the “LEPTNO % Inhn. Plus Copper Observed” value [1] was 94.1% and the melting point was 243 to 245 °C. The TLB % control (Phytophthora infestans) was 95%.
For `O=C(N/N=C1\CCc2cccc(O)c21)c1ccccc1` [Compound 7], the inhibition of growth at 0.05 µg/mL [1] was 0%, the “LEPTNO % Inhn. Plus Copper Observed” value [1] was 95.3% and the melting point was 192 to 194 °C. The TLB % control (Phytophthora infestans) was 61%.
With `Cc1ccc(C(=O)N/N=C2\CCc3c(Cl)cc(Cl)c(O)c32)c(O)c1` [Compound 8] the inhibition of growth at 0.05 µg/mL [1] was 0%, the “LEPTNO % Inhn. Plus Copper Observed” value [1] was 96.9% and the melting point was 284 to 288 °C. The TLB % control (Phytophthora infestans) was 69%.
For `O.O.[Cl][Cu][Cl]` [CuCl2, CuCl2.2H2O, reference compound], the “LEPTNO % inhibition attributed to copper chloride alone” value ([1]; CuCl2 10 μM, no test compound, growth in copper-plus vs copper-minus medium across experiments) was 13.2%.
